Measurements reported in paper PMC7259601 (PLoS ONE, 2020).
Like-named read-outs stand apart in the source and are kept apart here.

Tests used:
Type in all cases: biochemical
MAO- A (h) = biological target: T1, MAO- A (h) (Homo sapiens, UniProt P21397); assay: CEREP Diversity Panel
T1 construct: purchased CEREP (Eurofins Cerep)
Description: (§1) […]. MAO-A inhibition at 10 μM was 37%, in line with internal data.

5-lipoxygenase (h) = biological target: T2, 5-lipoxygenase (h) (Homo sapiens, UniProt P09917); assay: CEREP Diversity Panel
T2 construct: purchased CEREP (Eurofins Cerep)
Description: as §1

PKCa (h) = biological target: T3, PKCa (h) (Homo sapiens, UniProt P17252); assay: CEREP Diversity Panel
T3 construct: purchased CEREP (Eurofins Cerep)
Description: as §1

Eg5 (h) = biological target: T4, Eg5 (h) (Homo sapiens, UniProt P52732); assay: CEREP Diversity Panel
T4 construct: purchased CEREP (Eurofins Cerep)
Description: as §1

[1] = biological target: T5, PNMT (phenylethanolamine N-methyl transferase) (Bos taurus, UniProt P10938); assay: CEREP Diversity Panel
T5 construct: purchased CEREP (Eurofins Cerep)
Description: as §1

PDE1B (h) = biological target: T6, PDE1B (h) (Homo sapiens, UniProt Q01064); assay: CEREP Diversity Panel
T6 construct: purchased CEREP (Eurofins Cerep)
Description: as §1

GABA transaminase = biological target: T7, GABA transaminase (Rattus norvegicus, UniProt P50554); assay: CEREP Diversity Panel
T7 construct: purchased CEREP (Eurofins Cerep)
Description: as §1

tyrosine hydroxylase = biological target: T8, tyrosine hydroxylase (Rattus norvegicus, UniProt P04177); assay: CEREP Diversity Panel
T8 construct: purchased CEREP (Eurofins Cerep)
Description: as §1

HDAC4 (h) = HDAC4 (h) (Homo sapiens, UniProt P56524); assay: Epigenetic selectivity profile
Description: as §1

HDAC3 (h) = HDAC3 (h) (Homo sapiens, UniProt O15379); assay: Epigenetic selectivity profile
Description: as §1

JARID1A (h) = JARID1A (h) (Homo sapiens, UniProt P29375); assay: Epigenetic selectivity profile
Description: as §1

SETD7 (h) = SETD7 (h) (Homo sapiens, UniProt Q8WTS6); assay: Epigenetic selectivity profile
Description: as §1

JMJD2A (h) = JMJD2A (h) (Homo sapiens, UniProt O75164); assay: Epigenetic selectivity profile
Description: as §1

(h)p300 = (h)p300 (Homo sapiens, UniProt Q09472); assay: Epigenetic selectivity profile
Description: as §1

JMJD3 (h) = JMJD3 (h) (Homo sapiens, UniProt O15054); assay: Epigenetic selectivity profile
Description: as §1

HDAC6 (h) = HDAC6 (h) (Homo sapiens, UniProt Q9UBN7); assay: Epigenetic selectivity profile
Description: as §1

JMJD1A (h) = JMJD1A (h) (Homo sapiens, UniProt Q9Y4C1); assay: Epigenetic selectivity profile
Description: as §1

MLL complex (h) = MLL complex (h) (Homo sapiens, UniProt Q03164); assay: Epigenetic selectivity profile
Description: as §1

FBXL10 (h) = FBXL10 (h) (Homo sapiens, UniProt Q8NHM5); assay: Epigenetic selectivity profile
Description: as §1

DNMT1 (h) = DNMT1 (h) (Homo sapiens, UniProt P26358); assay: Epigenetic selectivity profile
Description: as §1

SUV39H1 (h) = SUV39H1 (h) (Homo sapiens, UniProt O43463); assay: Epigenetic selectivity profile
Description: as §1

[2] = biological target: sirtuin 1 (h) (inhibitor effect) (Homo sapiens, UniProt Q96EB6); assay: Epigenetic selectivity profile
Description: as §1

sirtuin 2 (h) = sirtuin 2 (h) (Homo sapiens, UniProt Q8IXJ6); assay: Epigenetic selectivity profile
Description: as §1

DOT1L (h) = DOT1L (h) (Homo sapiens, UniProt Q8TEK3); assay: Epigenetic selectivity profile
Description: as §1

HDAC11 (h) = HDAC11 (h) (Homo sapiens, UniProt Q96DB2); assay: Epigenetic selectivity profile
Description: as §1

T1 sequence (P21397 whole entry): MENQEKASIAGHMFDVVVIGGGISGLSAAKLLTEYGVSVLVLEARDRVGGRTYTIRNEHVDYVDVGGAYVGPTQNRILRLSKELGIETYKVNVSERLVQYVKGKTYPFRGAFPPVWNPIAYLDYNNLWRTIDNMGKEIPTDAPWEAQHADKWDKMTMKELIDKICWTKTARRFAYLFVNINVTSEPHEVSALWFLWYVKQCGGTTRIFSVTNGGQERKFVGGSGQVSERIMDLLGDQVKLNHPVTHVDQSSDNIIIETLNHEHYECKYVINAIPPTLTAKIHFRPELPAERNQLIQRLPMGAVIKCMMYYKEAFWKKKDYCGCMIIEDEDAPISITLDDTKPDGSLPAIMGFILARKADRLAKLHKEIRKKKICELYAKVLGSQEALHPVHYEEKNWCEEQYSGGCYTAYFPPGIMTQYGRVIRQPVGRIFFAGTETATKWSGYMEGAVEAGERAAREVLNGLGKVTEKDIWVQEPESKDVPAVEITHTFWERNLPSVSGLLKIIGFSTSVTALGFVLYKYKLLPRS
Sequence of HDAC4 (h) (P56524 whole entry): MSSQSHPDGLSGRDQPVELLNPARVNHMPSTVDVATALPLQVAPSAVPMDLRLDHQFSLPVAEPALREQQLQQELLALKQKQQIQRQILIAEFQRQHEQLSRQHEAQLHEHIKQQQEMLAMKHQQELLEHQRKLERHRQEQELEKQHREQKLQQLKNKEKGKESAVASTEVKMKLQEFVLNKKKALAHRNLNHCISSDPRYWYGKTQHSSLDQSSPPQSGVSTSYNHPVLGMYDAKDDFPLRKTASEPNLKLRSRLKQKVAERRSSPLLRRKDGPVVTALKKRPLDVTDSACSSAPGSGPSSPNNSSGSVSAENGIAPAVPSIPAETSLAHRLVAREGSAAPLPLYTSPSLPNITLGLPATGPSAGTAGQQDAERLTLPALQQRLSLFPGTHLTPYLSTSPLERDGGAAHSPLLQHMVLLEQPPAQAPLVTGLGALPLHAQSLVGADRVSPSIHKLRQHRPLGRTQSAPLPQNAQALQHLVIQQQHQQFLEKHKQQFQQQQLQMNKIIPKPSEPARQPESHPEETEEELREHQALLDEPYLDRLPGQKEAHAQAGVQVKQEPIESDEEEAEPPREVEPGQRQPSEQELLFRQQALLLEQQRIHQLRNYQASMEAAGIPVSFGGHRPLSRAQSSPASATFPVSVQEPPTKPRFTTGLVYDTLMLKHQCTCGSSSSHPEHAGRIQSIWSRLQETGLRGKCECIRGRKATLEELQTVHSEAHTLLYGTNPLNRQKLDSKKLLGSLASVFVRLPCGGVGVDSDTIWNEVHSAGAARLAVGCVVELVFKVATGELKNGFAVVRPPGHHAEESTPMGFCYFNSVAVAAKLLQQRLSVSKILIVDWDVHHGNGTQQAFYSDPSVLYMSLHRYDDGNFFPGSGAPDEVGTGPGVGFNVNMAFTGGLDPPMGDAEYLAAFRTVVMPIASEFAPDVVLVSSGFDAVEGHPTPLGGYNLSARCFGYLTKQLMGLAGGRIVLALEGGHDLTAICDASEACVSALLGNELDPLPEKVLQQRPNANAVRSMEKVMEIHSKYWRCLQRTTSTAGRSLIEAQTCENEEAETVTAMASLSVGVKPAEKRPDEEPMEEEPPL
Sequence of DNMT1 (h) (P26358 whole entry): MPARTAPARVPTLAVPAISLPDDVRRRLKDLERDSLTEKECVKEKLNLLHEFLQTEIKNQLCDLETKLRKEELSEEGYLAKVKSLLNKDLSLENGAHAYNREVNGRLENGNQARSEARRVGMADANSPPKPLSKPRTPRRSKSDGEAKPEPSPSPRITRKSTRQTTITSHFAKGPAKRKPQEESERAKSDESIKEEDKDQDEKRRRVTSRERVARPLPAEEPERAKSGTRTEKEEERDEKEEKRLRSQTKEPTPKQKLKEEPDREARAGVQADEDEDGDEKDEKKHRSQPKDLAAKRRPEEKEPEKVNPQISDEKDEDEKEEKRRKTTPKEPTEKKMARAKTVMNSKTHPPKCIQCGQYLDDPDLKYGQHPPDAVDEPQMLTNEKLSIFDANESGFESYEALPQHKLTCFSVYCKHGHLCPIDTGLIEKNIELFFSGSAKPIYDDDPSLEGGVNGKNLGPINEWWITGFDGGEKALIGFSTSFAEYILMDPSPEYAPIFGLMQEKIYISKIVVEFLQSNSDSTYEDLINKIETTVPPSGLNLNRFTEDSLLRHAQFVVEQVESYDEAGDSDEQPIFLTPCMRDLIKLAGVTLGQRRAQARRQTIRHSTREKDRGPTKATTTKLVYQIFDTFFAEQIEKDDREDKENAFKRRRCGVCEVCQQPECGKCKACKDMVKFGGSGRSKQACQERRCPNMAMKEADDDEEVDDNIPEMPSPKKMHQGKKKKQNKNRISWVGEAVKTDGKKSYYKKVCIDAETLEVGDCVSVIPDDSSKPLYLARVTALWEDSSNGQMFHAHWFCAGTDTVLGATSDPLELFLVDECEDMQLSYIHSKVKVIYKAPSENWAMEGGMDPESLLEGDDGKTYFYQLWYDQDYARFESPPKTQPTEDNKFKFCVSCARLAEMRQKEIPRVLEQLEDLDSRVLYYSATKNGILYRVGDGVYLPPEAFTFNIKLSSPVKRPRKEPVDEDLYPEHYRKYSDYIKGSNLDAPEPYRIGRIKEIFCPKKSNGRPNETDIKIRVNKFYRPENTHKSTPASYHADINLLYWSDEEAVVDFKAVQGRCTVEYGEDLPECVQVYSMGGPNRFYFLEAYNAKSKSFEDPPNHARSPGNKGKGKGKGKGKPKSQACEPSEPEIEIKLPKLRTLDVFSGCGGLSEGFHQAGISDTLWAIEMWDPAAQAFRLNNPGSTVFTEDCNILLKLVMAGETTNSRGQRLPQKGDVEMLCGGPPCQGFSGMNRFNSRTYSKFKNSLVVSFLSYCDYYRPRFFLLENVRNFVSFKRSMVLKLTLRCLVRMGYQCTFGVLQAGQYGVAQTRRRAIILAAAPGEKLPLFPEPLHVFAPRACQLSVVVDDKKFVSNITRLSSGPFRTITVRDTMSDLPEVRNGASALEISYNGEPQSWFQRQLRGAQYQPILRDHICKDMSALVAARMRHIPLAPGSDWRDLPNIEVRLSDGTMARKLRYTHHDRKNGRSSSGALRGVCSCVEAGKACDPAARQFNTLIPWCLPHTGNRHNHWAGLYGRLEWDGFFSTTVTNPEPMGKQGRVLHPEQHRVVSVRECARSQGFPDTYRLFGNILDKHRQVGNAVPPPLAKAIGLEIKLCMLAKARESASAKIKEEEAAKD
Sequence of JMJD3 (h) (O15054 whole entry): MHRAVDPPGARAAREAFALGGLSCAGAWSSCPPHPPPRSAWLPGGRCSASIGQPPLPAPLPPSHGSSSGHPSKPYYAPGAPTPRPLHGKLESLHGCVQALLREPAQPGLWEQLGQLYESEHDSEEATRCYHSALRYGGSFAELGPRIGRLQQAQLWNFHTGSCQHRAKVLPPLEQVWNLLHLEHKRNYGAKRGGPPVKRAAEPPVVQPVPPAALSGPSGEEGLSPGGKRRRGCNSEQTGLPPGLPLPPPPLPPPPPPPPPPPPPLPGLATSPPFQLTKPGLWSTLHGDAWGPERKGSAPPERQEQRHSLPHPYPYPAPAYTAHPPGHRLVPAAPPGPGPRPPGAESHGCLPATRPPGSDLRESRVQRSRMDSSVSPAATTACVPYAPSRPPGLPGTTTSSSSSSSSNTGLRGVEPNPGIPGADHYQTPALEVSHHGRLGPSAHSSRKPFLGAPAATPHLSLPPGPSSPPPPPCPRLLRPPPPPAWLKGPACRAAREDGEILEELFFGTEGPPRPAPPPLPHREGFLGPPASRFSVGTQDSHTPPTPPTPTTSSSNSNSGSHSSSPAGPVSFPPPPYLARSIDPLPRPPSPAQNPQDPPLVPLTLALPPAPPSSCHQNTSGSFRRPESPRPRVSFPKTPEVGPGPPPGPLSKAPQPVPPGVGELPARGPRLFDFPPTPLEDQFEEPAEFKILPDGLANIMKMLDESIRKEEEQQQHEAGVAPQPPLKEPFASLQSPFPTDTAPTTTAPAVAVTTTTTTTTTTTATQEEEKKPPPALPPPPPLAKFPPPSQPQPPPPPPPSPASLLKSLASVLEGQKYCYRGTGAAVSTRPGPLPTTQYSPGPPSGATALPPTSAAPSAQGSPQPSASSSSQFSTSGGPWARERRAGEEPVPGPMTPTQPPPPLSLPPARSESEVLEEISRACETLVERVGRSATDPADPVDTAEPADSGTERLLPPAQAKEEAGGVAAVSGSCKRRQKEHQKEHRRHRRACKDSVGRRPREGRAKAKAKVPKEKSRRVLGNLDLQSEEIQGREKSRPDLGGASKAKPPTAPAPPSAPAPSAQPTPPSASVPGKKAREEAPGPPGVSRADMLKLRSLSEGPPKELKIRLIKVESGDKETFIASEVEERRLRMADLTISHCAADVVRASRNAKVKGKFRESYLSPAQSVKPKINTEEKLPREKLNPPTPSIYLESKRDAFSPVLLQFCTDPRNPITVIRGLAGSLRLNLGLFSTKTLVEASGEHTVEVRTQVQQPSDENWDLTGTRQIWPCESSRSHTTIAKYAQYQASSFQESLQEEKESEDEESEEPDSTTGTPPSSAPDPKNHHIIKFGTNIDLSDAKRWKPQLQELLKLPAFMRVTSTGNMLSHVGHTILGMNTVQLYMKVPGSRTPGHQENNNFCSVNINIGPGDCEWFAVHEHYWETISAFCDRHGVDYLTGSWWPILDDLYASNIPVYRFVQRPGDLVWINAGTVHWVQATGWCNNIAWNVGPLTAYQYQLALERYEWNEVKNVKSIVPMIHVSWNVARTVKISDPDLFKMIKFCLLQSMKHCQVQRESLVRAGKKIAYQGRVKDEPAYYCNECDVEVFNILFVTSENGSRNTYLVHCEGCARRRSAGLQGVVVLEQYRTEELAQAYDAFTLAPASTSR

`Nc1nnc(CN[C@@H]2C[C@H]2c2ccc(OCc3ccccc3)cc2)o1` [ORY-2001, vafidemstat] was tested, and the inhibition at 10 µM (MAO- A (h); 10 μM, read-out: MAO-A inhibition) was 37%, the inhibition at 10 µM (MAO- A (h); at 10 µM, read-out: % inhibition) was 37% and the inhibition at 10 µM (5-lipoxygenase (h)) was 3%. For the same compound, the inhibition at 10 µM (PKCa (h)) was 4%, the inhibition at 10 µM (Eg5 (h)) was -3% and the inhibition at 10 µM [1] was 1%. The inhibition at 10 µM (PDE1B (h)) was 7%, the inhibition at 10 µM (GABA transaminase) was 8% and the inhibition at 10 µM (tyrosine hydroxylase) was -12%. The inhibition at 10 µM (HDAC4 (h)) was 0%, the inhibition at 10 µM (HDAC3 (h)) was -1% and the inhibition at 10 µM (JARID1A (h)) was 2%. For the same compound, the inhibition at 10 µM (SETD7 (h)) was -3%, the inhibition at 10 µM (JMJD2A (h)) was 7% and the inhibition at 10 µM ((h)p300) was 0%. For the same compound, the inhibition at 10 µM (JMJD3 (h)) was 4%, the inhibition at 10 µM (HDAC6 (h)) was 0% and the inhibition at 10 µM (JMJD1A (h)) was -11%. It also gave an inhibition at 10 µM (MLL complex (h)) of 3%, an inhibition at 10 µM (FBXL10 (h)) of 8% and an inhibition at 10 µM (DNMT1 (h)) of 15%. The inhibition at 10 µM (SUV39H1 (h)) was -7%, the inhibition at 10 µM [2] was 1% and the inhibition at 10 µM (sirtuin 2 (h)) was 5%. It also gave an inhibition at 10 µM (DOT1L (h)) of -1% and an inhibition at 10 µM (HDAC11 (h)) of -2%.
